Experimental data: patent EP0626016B1, “[…] […]” (BRITISH TECHNOLOGY GROUP LIMITED, priority 1992, dated 1993)
Where two headings read alike, the source gives them in different places.

Target: T1, HRP Type VIA (Armoracia rusticana, UniProt P00433)
T1 sequence (P00433 31-338): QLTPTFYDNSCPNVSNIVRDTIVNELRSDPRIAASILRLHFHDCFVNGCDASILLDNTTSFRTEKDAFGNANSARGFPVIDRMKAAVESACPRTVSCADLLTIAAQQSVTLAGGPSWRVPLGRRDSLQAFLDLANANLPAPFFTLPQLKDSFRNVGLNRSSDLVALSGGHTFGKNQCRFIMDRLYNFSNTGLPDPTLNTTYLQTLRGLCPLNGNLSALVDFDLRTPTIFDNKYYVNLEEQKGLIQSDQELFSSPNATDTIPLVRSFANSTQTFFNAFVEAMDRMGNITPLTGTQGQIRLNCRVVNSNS
Details: 10µl test compound; for (d) Signal: Background: ratio (control = with no enhancer): control value in brackets not reported

SMILES	(a) Decrease in background (without HRP with test cpd.) (0.01 mg/ml)	(b) Increase in signal (with HRP, with test cpd.) (0.01 mg/ml)	(c) Increase in signal: background ratio (0.01 mg/ml)	(d) Signal: Background: ratio (control = with no enhancer) (0.01 mg/ml)	(a) Decrease in background (without HRP with test cpd.) (0.1 mg/ml)	(b) Increase in signal (with HRP, with test cpd.) (0.1 mg/ml)	(c) Increase in signal: background ratio (0.1 mg/ml)	(d) Signal: Background: ratio (control = with no enhancer) (0.1 mg/ml)	(a) Decrease in background (without HRP with test cpd.) (1 mg/ml)	(b) Increase in signal (with HRP, with test cpd.) (1 mg/ml)	(c) Increase in signal: background ratio (1 mg/ml)	(d) Signal: Background: ratio (control = with no enhancer) (1 mg/ml)
O=C(O)c1ccc(N=Nc2ccc(O)c(B(O)O)c2)cc1 [Compound 1018, 4-(3'-borono-4'-hydroxyphenylazo)benzoic acid]	Y	N	Y (Column (c) shows whether there was an increase in the signal:background ratio by over 25% of the control value (Y = yes)	5.0	Y	N	Y (Column (c) shows whether there was an increase in the signal:background ratio by over 25% of the control value (Y = yes)	24.5	Y	N	Y (Column (c) shows whether there was an increase in the signal:background ratio by over 25% of the control value (Y = yes)	4.2 (1.9)
CC(C)COB(c1ccccc1)c1ccccc1 [Compound 1019, diphenylisobutoxyborane]	Y	N	Y (Column (c) shows whether there was an increase in the signal:background ratio by over 25% of the control value (Y = yes)	3.2 (2.0)	Y	N	N (N = no)	3.0 (2.9)	Y	N	N (N = no)	
OB(O)c1c(Cl)cc(Cl)cc1Cl [Compound 1020, 2,4,6-trichlorophenylboronic acid]	Y	N	N (N = no)	2.2 (2.0)	Y	N	N (N = no)		Y	N	N (N = no)	
O=[N+]([O-])c1cc(B(O)O)ccc1Cl [Compound 1021, 4-chloro-3-nitrophenylboronic acid]	Y	Y	Y (Column (c) shows whether there was an increase in the signal:background ratio by over 25% of the control value (Y = yes)	2.3 (1.8)	Y	Y	Y (Column (c) shows whether there was an increase in the signal:background ratio by over 25% of the control value (Y = yes)	44.5 (2.8)	Y	Y	Y (Column (c) shows whether there was an increase in the signal:background ratio by over 25% of the control value (Y = yes)	247.9 (4.5)
OB(O)c1cccc(Cl)c1Cl [Compound 1022, 2,3-dichlorophenylboronic acid]	Y	N	N (N = no)	2.2 (2.0)	Y	N	Y (Column (c) shows whether there was an increase in the signal:background ratio by over 25% of the control value (Y = yes)	3.6 (2.7)	Y	N	N (N = no)	
OB(O)c1cc(Cl)ccc1Cl [Compound 1023, 2,5-dichlorophenylboronic acid]	Y	N	N (N = no)		Y	N	N (N = no)	3.1 (2.7)	Y	N	N (N = no)	
OB(O)c1ccc(Cl)c(Cl)c1 [Compound 1024, 3,4-dichlorophenylboronic acid]	Y	N	N (N = no)		Y	Y	Y (Column (c) shows whether there was an increase in the signal:background ratio by over 25% of the control value (Y = yes)	5.4 (2.8)	Y	N	Y (Column (c) shows whether there was an increase in the signal:background ratio by over 25% of the control value (Y = yes)	7.6 (4.5)
OB(O)c1cc(Cl)cc(Cl)c1 [Compound 1025, 3,5-dichlorophenylboronic acid]	Y	N	N (N = no)	2.1 (2.0)	Y	N	N (N = no)		Y	N	N (N = no)	
Nc1c(Cl)cc(Cl)c(B(O)O)c1Cl [Compound 1026, 3-amino-2,4,6-trichlorophenylboronic acid]	Y	N	N (N = no)	2.1 (2.0)	Y	Y	Y (Column (c) shows whether there was an increase in the signal:background ratio by over 25% of the control value (Y = yes)	72.4 (2.8)	Y	N	Y (Column (c) shows whether there was an increase in the signal:background ratio by over 25% of the control value (Y = yes)	40.5 (4.5)
